For the assay, the system named is WEEV replicon. Nature of the assay: microbe, parasite or virus in culture. As to conditions: Western equine encephalitis virus; for activity at 2 µM: read-out: Activity (% control LUC) 2 μM; for activity at 10 µM: read-out: Activity (% control LUC) 10 μM. The assay is classed as cell-based, Western equine encephalitis virus.
Setting [1] is: read-out: Activity (% control LUC) 50 μM.
The mark [2] stands for this setting: read-out: 50 μM (% control) Luc.

Where two headings read alike, the source gives them in different places.

Take `O=C(c1cc2ccccc2n1Cc1ccc(Cl)cc1)N1CCC(C(=O)N2CCCC2)CC1` [CCG 102514, (1-(4-chlorobenzyl)-1H-indol-2-yl)(4-(pyrrolidine-1-carbonyl)piperidin-1-yl)methanone]: the activity at 2 µM was 83.1% and the activity at 10 µM is 66.4%. In addition, the IC50 (read-out: Activity IC50 (μM)) stood at 23.8 µM. Besides, under setting [1], the activity at 50 µM was 10.5%.
In the case of `Cc1ccc(CCNC(=O)C2CCN(C(=O)c3cc4ccccc4n3Cc3ccc(Cl)cc3)CC2)cc1` [CCG 102518, 1-(1-(4-chlorobenzyl)-1H-indole-2-carbonyl)-N-(4-methylphenethyl)piperidine-4-carboxamide], the activity at 2 µM stood at 83% and the activity at 10 µM was 33.8%. Further, the IC50 (read-out: Activity IC50 (μM)) was 4.2 µM. Also, the activity at 50 µM under setting [1] was 32.2%.
As to `O=C(NCc1ccccc1)C1CCN(C(=O)c2cc3ccccc3n2Cc2ccc(F)cc2)CC1` [CCG 203880, N-benzyl-1-(1-(4-fluorobenzyl)-1H-indole-2-carbonyl)piperidine-4-carboxamide], the activity at 2 µM amounted to 134% and the activity at 10 µM amounted to 121%. Further, under “read-out: Activity IC50 (μM)”, the IC50 was determined as 25 µM. In addition, the activity at 50 µM under setting [1] amounted to 67%.
Turning to `O=C(c1cc2ccccc2n1Cc1ccc(Cl)cc1)N1CCC(C(=O)N2CCCCC2)CC1` [CCG 203928, (1-(4-chlorobenzyl)-1H-indol-2-yl)(4-(piperidine-1-carbonyl)piperidin-1-yl)methanone], the activity at 2 µM came to 95.1% and the activity at 10 µM came out at 65.4%. For the setting “read-out: Activity IC50 (μM)”, the IC50 was determined as 8.1 µM. Under setting [1], the activity at 50 µM stood at 3.4%.
Take `O=C(NCc1ccncc1)C1CCN(C(=O)c2cc3ccccc3n2Cc2ccc(Cl)cc2)CC1` [CCG 203929, 1-(1-(4-chlorobenzyl)-1H-indole-2-carbonyl)-N-(pyridin-4-ylmethyl)piperidine-4-carboxamide]: the activity at 2 µM came to 99.5% and the activity at 10 µM was 51.8%. Under “read-out: Activity IC50 (μM)”, the IC50 amounted to 6.6 µM. Besides, the activity at 50 µM under setting [1] was 36.4%.
With `CN(Cc1ccccc1)C(=O)C1CCN(C(=O)c2cc3ccccc3n2Cc2ccc(Cl)cc2)CC1` [CCG 203930, N-benzyl-1-(1-(4-chlorobenzyl)-1H-indole-2-carbonyl)-N-methylpiperidine-4-carboxamide], the activity at 2 µM is 110% and the activity at 10 µM turned out to be 59.5%. Moreover, for the setting “read-out: Activity IC50 (μM)”, the IC50 was determined as 18.6 µM. Further, under setting [1], the activity at 50 µM is 38%.
`O=C(c1cc2ccccc2n1Cc1ccc(F)cc1)N1CCN(Cc2ccccc2)CC1` [CCG 203942, (4-benzylpiperazin-1-yl)(1-(4-fluorobenzyl)-1H-indol-2-yl)methanone]: the activity at 2 µM was 116% and the activity at 10 µM turned out to be 73.8%. The IC50 (read-out: Activity IC50 (μM)) amounted to 12.8 µM. The activity at 50 µM under setting [1] is 48.9%.
The matching figures for `O=C(c1cc2ccccc2n1Cc1ccc(F)cc1)N1CCC(C(=O)N2CCCCC2)CC1` [CCG 203945, (1-(4-fluorobenzyl)-1H-indol-2-yl)(4-(piperidine-1-carbonyl)piperidin-1-yl)methanone]: 85%, 64.4%, 20 µM and 21.3%.
Turning to `O=C(c1cc2ccccc2n1Cc1ccc(Cl)cc1)N1CCC(C(=O)N2CCC[C@H]2CO)CC1` [CCG 204021, (S)-(1-(4-chlorobenzyl)-1H-indol-2-yl)(4-(2-(hydroxymethyl)pyrrolidine-1-carbonyl)piperidin-1-yl)methanone], the activity at 2 µM was determined as 87.8% and the activity at 10 µM was found to be 77.9%. Further, the IC50 (read-out: Activity IC50 (μM)) was 32.1 µM. Further, the activity at 50 µM under setting [1] is 21.1%.
With `CN(C)C(=O)C1CCN(C(=O)c2cc3ccccc3n2Cc2ccc(Cl)cc2)CC1` [CCG 204022, 1-(1-(4-chlorobenzyl)-1H-indole-2-carbonyl)-N,N-dimethylpiperidine-4-carboxamide], the activity at 2 µM came out at 87.3% and the activity at 10 µM was 51.9%. Also, the IC50 (read-out: Activity IC50 (μM)) was 10.4 µM. Further, the activity at 50 µM under setting [1] came out at 5.8%.
On to `CN1CCN(C(=O)C2CCN(C(=O)c3cc4ccccc4n3Cc3ccc(Cl)cc3)CC2)CC1` [CCG 204023, (1-(4-chlorobenzyl)-1H-indol-2-yl)(4-(4-methylpiperazine-1-carbonyl)piperidin-1-yl)methanone], for which the activity at 2 µM came out at 99% and the activity at 10 µM turned out to be 67.4%. Besides, the IC50 (read-out: Activity IC50 (μM)) was determined as 21.4 µM. Besides, under setting [1], the activity at 50 µM came to 6%.
Take `O=C(c1cc2ccccc2n1Cc1ccc(Cl)cc1)N1CCC(C(=O)N2CCOCC2)CC1` [CCG 204024, (1-(4-chlorobenzyl)-1H-indol-2-yl)(4-(morpholine-4-carbonyl)piperidin-1-yl)methanone]: the activity at 2 µM was found to be 74.9% and the activity at 10 µM was found to be 47.4%. For the same compound, the IC50 (read-out: Activity IC50 (μM)) stood at 12.3 µM. For the same compound, the activity at 50 µM under setting [1] was 8.3%.
For `Cc1cccc(CNC(=O)C2CCN(C(=O)c3cc4ccccc4n3Cc3ccc(Cl)cc3)CC2)c1` [CCG 204042, 1-(1-(4-chlorobenzyl)-1H-indole-2-carbonyl)-N-(3-methylbenzyl)piperidine-4-carboxamide], the activity at 2 µM was found to be 93.7% and the activity at 10 µM was 59.5%. For the same compound, the IC50 (read-out: Activity IC50 (μM)) stood at 9.8 µM. Also, the activity at 50 µM under setting [1] stood at 64.4%.
Regarding `O=C(NCc1cccc(Cl)c1)C1CCN(C(=O)c2cc3ccccc3n2Cc2ccc(Cl)cc2)CC1` [CCG 204043, N-(3-chlorobenzyl)-1-(1-(4-chlorobenzyl)-1H-indole-2-carbonyl)piperidine-4-carboxamide], the activity at 2 µM was found to be 78.6% and the activity at 10 µM came out at 60.9%. The IC50 (read-out: Activity IC50 (μM)) stood at 28.5 µM. In addition, the activity at 50 µM under setting [1] worked out at 53.6%.
With `O=C(NCc1ccccc1)C1CCN(C(=O)c2cccn2Cc2ccc(Cl)cc2)CC1` [CCG 204054, N-benzyl-1-(1-(4-chlorobenzyl)-1H-pyrrole-2-carbonyl)piperidine-4-carboxamide], the activity at 2 µM worked out at 110% and the activity at 10 µM stood at 108%. Further, the IC50 (read-out: Activity IC50 (μM)) came out at 54.6 µM. The activity at 50 µM under setting [1] was 74.5%.
In the case of `O=C(c1cc2ccccc2n1Cc1ccc(F)cc1)N1CCC(CN2CCCCC2)CC1` [CCG 204055, (1-(4-fluorobenzyl)-1H-indol-2-yl)(4-(piperidin-1-ylmethyl)piperidin-1-yl)methanone], the activity at 2 µM was found to be 89.7% and the activity at 10 µM stood at 69.9%. The IC50 (read-out: Activity IC50 (μM)) was 13.3 µM. Besides, the activity at 50 µM under setting [1] worked out at 40%.
Turning to `O=C(c1cc2ccccc2n1Cc1ccc(F)cc1)N1CCC(C(O)c2ccccc2)CC1` (stereo not shown) [CCG 204056, (1-(4-fluorobenzyl)-1H-indol-2-yl)(4-(hydroxy(phenyl)methyl)piperidin-1-yl)methanone], the activity at 2 µM came to 99.3% and the activity at 10 µM worked out at 71.7%. Besides, where the note is “read-out: Activity IC50 (μM)”, the IC50 is 16 µM. Under setting [1], the activity at 50 µM turned out to be 8.3%.
Consider `COC(=O)c1cccc(NC(=O)C2CCN(C(=O)c3cc4ccccc4n3Cc3ccc(Cl)cc3)CC2)c1` [CCG 204057, Methyl 3-(1-(1-(4-chlorobenzyl)-1H-indole-2-carbonyl)piperidine-4-carboxamido)benzoate], for which the activity at 2 µM was found to be 87.9% and the activity at 10 µM stood at 54%. In addition, the IC50 (read-out: Activity IC50 (μM)) amounted to 35.6 µM. Besides, the activity at 50 µM under setting [1] is 50.9%.
`CN(Cc1ccccc1)C(=O)C1CCN(C(=O)c2cc3ccccc3[nH]2)CC1` [CCG 205400, N-benzyl-1-(1H-indole-2-carbonyl)-N-methylpiperidine-4-carboxamide] registered an IC50 of 27.7 µM. Moreover, the activity at 50 µM under setting [2] came to 29.1%.
`CN(Cc1ccccc1)C(=O)C1CCN(C(=O)c2cc3ccccc3n2Cc2ccccc2)CC1` [CCG 205404, N-benzyl-1-(1-benzyl-1H-indole-2-carbonyl)-N-methylpiperidine-4-carboxamide] displayed an IC50 of 16.9 µM. The activity at 50 µM under setting [2] was 20.5%.
On to `O=C(NCc1cccnc1)C1CCN(C(=O)c2cc3ccccc3n2Cc2ccc(Cl)cc2)CC1` [CCG 205422, 1-(1-(4-chlorobenzyl)-1H-indole-2-carbonyl)-N-(pyridin-3-ylmethyl)piperidine-4-carboxamide], for which the IC50 was determined as 11.4 µM. The activity at 50 µM under setting [2] was found to be 7.05%.
Turning to `CN(Cc1ccccc1)C(=O)C1CCN(C(=O)c2cc3ccccc3n2C)CC1` [CCG 205428, N-benzyl-N-methyl-1-(1-methyl-1H-indole-2-carbonyl)piperidine-4-carboxamide], under setting [2], the activity at 50 µM was 77.2%.
As for `CN1CCC(CNC(=O)C2CCN(C(=O)c3cc4ccccc4n3Cc3ccc(Cl)cc3)CC2)CC1` [CCG 205429, 1-(1-(4-chlorobenzyl)-1H-indole-2-carbonyl)-N-((1-methylpiperidin-4-yl)methyl)piperidine-4-carboxamide], the activity at 50 µM under setting [2] is 26.8%.
Turning to `O=C(c1cc2ccccc2n1Cc1ccc(Cl)cc1)N1CCC(C(=O)N2CCN(Cc3cccnc3)CC2)CC1` [CCG 205430, (1-(4-chlorobenzyl)-1H-indol-2-yl)(4-(4-(pyridin-3-ylmethyl)piperazine-1-carbonyl)piperidin-1-yl)methanone], the IC50 amounted to 13.1 µM. Further, the activity at 50 µM under setting [2] amounted to 3.55%.
On to `Cc1c(C(=O)N2CCC(C(=O)NCc3ccccc3)CC2)n(Cc2ccc(Cl)cc2)c2ccccc12` [CCG 205431, N-benzyl-1-(1-(4-chlorobenzyl)-3-methyl-1H-indole-2-carbonyl)piperidine-4-carboxamide], for which the IC50 is > 100 µM. Besides, the activity at 50 µM under setting [2] amounted to 48.4%.
For `O=C(NCCc1ccncc1)C1CCN(C(=O)c2cc3ccccc3n2Cc2ccc(Cl)cc2)CC1` [CCG 205432, 1-(1-(4-chlorobenzyl)-1H-indole-2-carbonyl)-N-(2-(pyridin-4-yl)ethyl)piperidine-4-carboxamide], the midpoint of inhibition, the IC50, lay at 0.53 µM. Besides, the activity at 50 µM under setting [2] was 3.75%.
Compound `O=C(NCCc1cccnc1)C1CCN(C(=O)c2cc3ccccc3n2Cc2ccc(Cl)cc2)CC1` [CCG 205433, 1-(1-(4-chlorobenzyl)-1H-indole-2-carbonyl)-N-(2-(pyridin-3-yl)ethyl)piperidine-4-carboxamide] came in with an IC50 of 5.34 µM. Further, the activity at 50 µM under setting [2] was 1.9%.

The values above are taken from patent US8846684B2 (priority 2011, dated 2014).
